Reference: ChEMBL document CHEMBL4145634, “Discovery of Janus Kinase 2 (JAK2) and Histone Deacetylase (HDAC) Dual Inhibitors as a Novel Strategy for the Combinational Treatment of Leukemia and Invasive Fungal Infections” (J Med Chem, 2018)
Converted amounts (≈) assume the structure as drawn. The source made the active and inactive calls. The calls are words filed in the database; no cut-off is given here.

Assays:
[1] = target: Histone deacetylase 3/NCoR1 (Homo sapiens, UniProt O15379); experiment: Inhibition of human recombinant HDAC3/GST-tagged NCOR1 (397 to 503 residues) co-expressed in insect cells using (Ac-Leu-Gly-Lys(Ac)-AMC as substrate preincubated for 5 mins followed by substrate addition and measured after 30 mins by fluorescence assay
Histone deacetylase 2 = Histone deacetylase 2 (Homo sapiens, UniProt Q92769); experiment: Inhibition of recombinant HDAC2 (unknown origin) using (Ac-Leu-Gly-Lys(Ac)-AMC as substrate preincubated for 5 mins followed by substrate addition and measured after 30 mins by fluorescence assay
[2] = target: Non-receptor tyrosine-protein kinase TYK2 (Homo sapiens, UniProt P29597); experiment: Inhibition of TYK2 (unknown origin) using FAM-labeled peptide as substrate preincubated for 10 mins followed by substrate addition and measured after 25 mins in presence of ATP
[3] = target: T1, Tyrosine-protein kinase JAK2 (Homo sapiens, UniProt O60674); experiment: Inhibition of JAK2 (unknown origin) using FAM-labeled peptide as substrate preincubated for 10 mins followed by substrate addition and measured after 25 mins in presence of ATP
Histone deacetylase 1 = Histone deacetylase 1 (Homo sapiens, UniProt Q13547); experiment: Inhibition of full length human recombinant HDAC1 expressed in baculovirus expression system using (Ac-Leu-Gly-Lys(Ac)-AMC as substrate preincubated for 5 mins followed by substrate addition and measured after 30 mins by fluorescence assay
HL-60 = experiment: Antiproliferative activity against human HL60 cells after 48 hrs by CCK-8 assay; type: functional, cell-based; conditions: HL-60, 48 h
K562 = experiment: Antiproliferative activity against human K562 cells after 48 hrs by CCK-8 assay; type: functional, cell-based; conditions: K562, 48 h
HEL [4] = experiment: Antiproliferative activity against human HEL cells after 48 hrs by CCK-8 assay; type: functional, cell-based
HEL [5] = experiment: Induction of apoptosis in human HEL cells after 48 hrs by Annexin-V-FITC/propidium iodide staining based flow cytometry; type: functional, cell-based
HEL [6] = experiment: Induction of apoptosis in human HEL cells at 10 uM after 48 hrs by Annexin-V-FITC/propidium iodide staining based flow cytometry relative to control; type: functional
HEL [7] = experiment: Cell cycle arrest in human HEL cells assessed as accumulation at G2/M phase at 1 uM after 48 hrs propidium iodide staining based flow cytometry (reference value: 9.32%); type: functional
HEL [8] = experiment: Cell cycle arrest in human HEL cells assessed as accumulation at G2/M phase at 5 uM after 48 hrs propidium iodide staining based flow cytometry (reference value: 9.31%); type: functional
HEL [9] = experiment: Cell cycle arrest in human HEL cells assessed as accumulation at S phase at 5 uM after 48 hrs propidium iodide staining based flow cytometry relative to control; type: functional
[10] = target: Tyrosine-protein kinase JAK1 (Homo sapiens, UniProt P23458); experiment: Inhibition of JAK1 (unknown origin) using FAM-labeled peptide as substrate preincubated for 10 mins followed by substrate addition and measured after 25 mins in presence of ATP
Candida albicans [11] = experiment: microbe, parasite or virus in culture; type: functional; conditions: Candida albicans, 0304103, 48 h
Description: Antifungal activity against FLC resistant Candida albicans 0304103 after 48 hrs by checkerboard microdilution method

Candida albicans [12] = experiment: microbe, parasite or virus in culture; type: functional; conditions: Candida albicans, 0304103, 48 h; remark: listed apart in the source
Description: Antifungal activity against FLC resistant Candida albicans 0304103 assessed as fluconazol MIC50 after 48 hrs by checkerboard microdilution method

Candida albicans [13] = experiment: microbe, parasite or virus in culture; type: functional; conditions: Candida albicans, 0304103, 48 h; remark: listed apart in the source
Description: Antifungal activity against FLC resistant Candida albicans 0304103 after 48 hrs in presence of fluconazol by checkerboard microdilution method

Candida albicans [14] = experiment: Antifungal activity against FLC resistant Candida albicans 100 after 48 hrs by checkerboard microdilution method; type: functional; conditions: Candida albicans, 100, 48 h
Candida albicans [15] = experiment: microbe, parasite or virus in culture; type: functional; conditions: Candida albicans, 100, 48 h
Description: Antifungal activity against FLC resistant Candida albicans 100 assessed as fluconazol MIC50 after 48 hrs by checkerboard microdilution method

Candida albicans [16] = experiment: Antifungal activity against FLC resistant Candida albicans 100 after 48 hrs in presence of fluconazol by checkerboard microdilution method; type: functional; conditions: Candida albicans, 100, 48 h
Candida albicans [17] = experiment: microbe, parasite or virus in culture; type: functional; conditions: Candida albicans, 0710922, 48 h
Description: Antifungal activity against FLC resistant Candida albicans 0710922 after 48 hrs by checkerboard microdilution method

Candida albicans [18] = experiment: microbe, parasite or virus in culture; type: functional; conditions: Candida albicans, 0710922, 48 h; remark: listed apart in the source
Description: Antifungal activity against FLC resistant Candida albicans 0710922 assessed as fluconazol MIC50 after 48 hrs by checkerboard microdilution method

Candida albicans [19] = experiment: microbe, parasite or virus in culture; type: functional; conditions: Candida albicans, 0710922, 48 h; remark: listed apart in the source
Description: Antifungal activity against FLC resistant Candida albicans 0710922 after 48 hrs in presence of fluconazol by checkerboard microdilution method

Candida albicans [20] = experiment: Synergistic antifungal activity against FLC resistant Candida albicans 0304103 assessed as FIC index after 48 hrs by checkerboard microdilution method; type: functional
Candida albicans [21] = experiment: Synergistic antifungal activity against FLC resistant Candida albicans 100 assessed as FIC index after 48 hrs by checkerboard microdilution method; type: functional
Candida albicans [22] = experiment: Synergistic antifungal activity against FLC resistant Candida albicans 0710922 assessed as FIC index after 48 hrs by checkerboard microdilution method; type: functional
Candida albicans [23] = experiment: Antifungal activity against FLC resistant Candida albicans 0304103 at 32 ug/ml up to 24 hrs by checkerboard microdilution method; type: functional, organism-based
Candida albicans [24] = experiment: Antibiofilm activity against FLC resistant Candida albicans 0304103 assessed as inhibition of biofilm formation pre-incubated with 64 ug/ml FLC for 90 mins followed by further incubation with compound for 24 hrs by XTT reduction assay; type: functional, organism-based
[25] = target: T2, Histone deacetylase (Homo sapiens) (UniProt Q13547+O15379+Q9UBN7+Q92769+Q9UQL6+Q8WUI4+Q9BY41+Q96DB2+P56524+Q9UKV0+Q969S8); experiment: Inhibition of HDAC in human HEL cells assessed as increased in histone H3 acetylation after 24 hrs by Western blot analysis; type: cell-based
[26] = target: T2, Histone deacetylase (Homo sapiens); experiment: Inhibition of HDAC in human HEL cells assessed as increased in histone H4 acetylation after 24 hrs by Western blot analysis; type: cell-based
[27] = target: T1, Tyrosine-protein kinase JAK2; experiment: Inhibition of JAK2 in human HEL cells assessed as decrease in STAT5 phosphorylation after 24 hrs by Western blot analysis; type: cell-based
Mus musculus [28] = experiment: Toxicity in BALB/C nude mouse xenografted with human HEL cells at 10 mg/kg, ip bid treated for 21 consecutive days; type: organism-based; conditions: in vivo
Mus musculus [29] = experiment: Toxicity in BALB/C nude mouse xenografted with human HEL cells assessed as reduction in body weight at 10 mg/kg, ip bid treated for 21 consecutive days; type: organism-based; conditions: in vivo
Mus musculus [30] = experiment: Protection against spleen enlargement in SCID mouse xenografted with human HEL cells at 10 mg/kg, ip qd; type: functional, organism-based
HEL [31] = experiment: Antitumor activity in human HEL cells xenografted in SCID mouse assessed as increase in mouse survival at 10 mg/kg, ip qd measured up to 40 days; type: functional, organism-based
HEL [32] = experiment: Antitumor activity in human HEL cells xenografted in SCID mouse assessed as mouse survival time at 10 mg/kg, ip qd; type: functional
[33] = Half life in ICR mouse liver microsomes at 1 uM measured up to 45 mins in presence of NADPH by LC-MS/MS analysis; type: ADME, microsome
[34] = Clearance in ICR mouse liver microsomes at 1 uM measured up to 45 mins in presence of NADPH by LC-MS/MS analysis; type: ADME, microsome; conditions: 0.75 h
Candida albicans [35] = experiment: Antibiofilm activity against FLC resistant Candida albicans 0304103 assessed as inhibition of biofilm formation pre-incubated with 64 ug/ml FLC for 90 mins followed by further incubation with compound at 16 ug/ml for 24 hrs by XTT reduction assay; type: functional
HEL [36] = experiment: Antitumor activity against human HEL cells xenografted in BALB/C nude mouse assessed as tumor growth inhibition at 10 mg/kg, ip bid treated for 21 consecutive days relative to control; type: functional; conditions: read-out: TGI

T1 sequence (O60674 whole entry): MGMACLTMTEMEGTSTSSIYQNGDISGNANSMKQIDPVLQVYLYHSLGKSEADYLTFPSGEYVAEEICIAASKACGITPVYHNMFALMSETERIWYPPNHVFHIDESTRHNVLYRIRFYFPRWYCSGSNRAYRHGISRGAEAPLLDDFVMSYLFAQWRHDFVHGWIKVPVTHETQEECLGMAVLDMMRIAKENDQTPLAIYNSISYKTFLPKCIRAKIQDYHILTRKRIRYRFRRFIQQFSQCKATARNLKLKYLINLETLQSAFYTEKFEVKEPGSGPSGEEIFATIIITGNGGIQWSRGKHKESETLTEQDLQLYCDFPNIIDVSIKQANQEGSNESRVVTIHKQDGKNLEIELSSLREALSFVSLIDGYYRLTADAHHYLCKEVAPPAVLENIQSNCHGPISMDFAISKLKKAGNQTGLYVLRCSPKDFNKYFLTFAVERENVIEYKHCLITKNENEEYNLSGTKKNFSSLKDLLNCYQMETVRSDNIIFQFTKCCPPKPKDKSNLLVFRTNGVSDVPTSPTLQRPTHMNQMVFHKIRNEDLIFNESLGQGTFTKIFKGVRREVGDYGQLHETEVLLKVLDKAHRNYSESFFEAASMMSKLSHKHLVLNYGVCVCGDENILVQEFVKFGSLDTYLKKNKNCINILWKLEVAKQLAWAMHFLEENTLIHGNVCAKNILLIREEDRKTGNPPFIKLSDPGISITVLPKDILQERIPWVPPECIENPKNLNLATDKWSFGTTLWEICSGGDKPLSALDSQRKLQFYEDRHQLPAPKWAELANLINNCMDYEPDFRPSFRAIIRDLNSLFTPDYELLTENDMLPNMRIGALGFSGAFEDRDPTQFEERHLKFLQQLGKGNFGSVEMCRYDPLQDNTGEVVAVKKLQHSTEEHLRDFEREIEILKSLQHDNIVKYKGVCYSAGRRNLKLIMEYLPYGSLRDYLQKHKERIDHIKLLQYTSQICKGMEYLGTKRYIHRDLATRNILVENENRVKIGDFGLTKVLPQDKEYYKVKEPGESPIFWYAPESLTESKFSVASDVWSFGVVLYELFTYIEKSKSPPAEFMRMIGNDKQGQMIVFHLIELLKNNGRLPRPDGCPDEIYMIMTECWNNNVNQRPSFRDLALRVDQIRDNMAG
Chain of Histone deacetylase 3/NCoR1 (O15379 whole entry, the tested form may be a part): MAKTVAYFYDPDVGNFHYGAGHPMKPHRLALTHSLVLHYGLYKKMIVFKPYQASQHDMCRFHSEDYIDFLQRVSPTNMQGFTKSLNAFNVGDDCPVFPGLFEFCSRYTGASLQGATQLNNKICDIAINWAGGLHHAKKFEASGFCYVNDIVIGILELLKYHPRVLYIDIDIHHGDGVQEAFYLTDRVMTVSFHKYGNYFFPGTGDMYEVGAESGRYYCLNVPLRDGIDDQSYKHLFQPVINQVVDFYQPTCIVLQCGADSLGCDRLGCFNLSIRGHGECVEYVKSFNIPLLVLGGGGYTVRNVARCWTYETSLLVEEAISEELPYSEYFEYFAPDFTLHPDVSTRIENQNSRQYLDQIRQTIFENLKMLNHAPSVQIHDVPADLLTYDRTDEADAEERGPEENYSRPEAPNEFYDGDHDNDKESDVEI
Chain of Histone deacetylase 3/NCoR1 (O75376 whole entry, further chain, the tested form may be a part): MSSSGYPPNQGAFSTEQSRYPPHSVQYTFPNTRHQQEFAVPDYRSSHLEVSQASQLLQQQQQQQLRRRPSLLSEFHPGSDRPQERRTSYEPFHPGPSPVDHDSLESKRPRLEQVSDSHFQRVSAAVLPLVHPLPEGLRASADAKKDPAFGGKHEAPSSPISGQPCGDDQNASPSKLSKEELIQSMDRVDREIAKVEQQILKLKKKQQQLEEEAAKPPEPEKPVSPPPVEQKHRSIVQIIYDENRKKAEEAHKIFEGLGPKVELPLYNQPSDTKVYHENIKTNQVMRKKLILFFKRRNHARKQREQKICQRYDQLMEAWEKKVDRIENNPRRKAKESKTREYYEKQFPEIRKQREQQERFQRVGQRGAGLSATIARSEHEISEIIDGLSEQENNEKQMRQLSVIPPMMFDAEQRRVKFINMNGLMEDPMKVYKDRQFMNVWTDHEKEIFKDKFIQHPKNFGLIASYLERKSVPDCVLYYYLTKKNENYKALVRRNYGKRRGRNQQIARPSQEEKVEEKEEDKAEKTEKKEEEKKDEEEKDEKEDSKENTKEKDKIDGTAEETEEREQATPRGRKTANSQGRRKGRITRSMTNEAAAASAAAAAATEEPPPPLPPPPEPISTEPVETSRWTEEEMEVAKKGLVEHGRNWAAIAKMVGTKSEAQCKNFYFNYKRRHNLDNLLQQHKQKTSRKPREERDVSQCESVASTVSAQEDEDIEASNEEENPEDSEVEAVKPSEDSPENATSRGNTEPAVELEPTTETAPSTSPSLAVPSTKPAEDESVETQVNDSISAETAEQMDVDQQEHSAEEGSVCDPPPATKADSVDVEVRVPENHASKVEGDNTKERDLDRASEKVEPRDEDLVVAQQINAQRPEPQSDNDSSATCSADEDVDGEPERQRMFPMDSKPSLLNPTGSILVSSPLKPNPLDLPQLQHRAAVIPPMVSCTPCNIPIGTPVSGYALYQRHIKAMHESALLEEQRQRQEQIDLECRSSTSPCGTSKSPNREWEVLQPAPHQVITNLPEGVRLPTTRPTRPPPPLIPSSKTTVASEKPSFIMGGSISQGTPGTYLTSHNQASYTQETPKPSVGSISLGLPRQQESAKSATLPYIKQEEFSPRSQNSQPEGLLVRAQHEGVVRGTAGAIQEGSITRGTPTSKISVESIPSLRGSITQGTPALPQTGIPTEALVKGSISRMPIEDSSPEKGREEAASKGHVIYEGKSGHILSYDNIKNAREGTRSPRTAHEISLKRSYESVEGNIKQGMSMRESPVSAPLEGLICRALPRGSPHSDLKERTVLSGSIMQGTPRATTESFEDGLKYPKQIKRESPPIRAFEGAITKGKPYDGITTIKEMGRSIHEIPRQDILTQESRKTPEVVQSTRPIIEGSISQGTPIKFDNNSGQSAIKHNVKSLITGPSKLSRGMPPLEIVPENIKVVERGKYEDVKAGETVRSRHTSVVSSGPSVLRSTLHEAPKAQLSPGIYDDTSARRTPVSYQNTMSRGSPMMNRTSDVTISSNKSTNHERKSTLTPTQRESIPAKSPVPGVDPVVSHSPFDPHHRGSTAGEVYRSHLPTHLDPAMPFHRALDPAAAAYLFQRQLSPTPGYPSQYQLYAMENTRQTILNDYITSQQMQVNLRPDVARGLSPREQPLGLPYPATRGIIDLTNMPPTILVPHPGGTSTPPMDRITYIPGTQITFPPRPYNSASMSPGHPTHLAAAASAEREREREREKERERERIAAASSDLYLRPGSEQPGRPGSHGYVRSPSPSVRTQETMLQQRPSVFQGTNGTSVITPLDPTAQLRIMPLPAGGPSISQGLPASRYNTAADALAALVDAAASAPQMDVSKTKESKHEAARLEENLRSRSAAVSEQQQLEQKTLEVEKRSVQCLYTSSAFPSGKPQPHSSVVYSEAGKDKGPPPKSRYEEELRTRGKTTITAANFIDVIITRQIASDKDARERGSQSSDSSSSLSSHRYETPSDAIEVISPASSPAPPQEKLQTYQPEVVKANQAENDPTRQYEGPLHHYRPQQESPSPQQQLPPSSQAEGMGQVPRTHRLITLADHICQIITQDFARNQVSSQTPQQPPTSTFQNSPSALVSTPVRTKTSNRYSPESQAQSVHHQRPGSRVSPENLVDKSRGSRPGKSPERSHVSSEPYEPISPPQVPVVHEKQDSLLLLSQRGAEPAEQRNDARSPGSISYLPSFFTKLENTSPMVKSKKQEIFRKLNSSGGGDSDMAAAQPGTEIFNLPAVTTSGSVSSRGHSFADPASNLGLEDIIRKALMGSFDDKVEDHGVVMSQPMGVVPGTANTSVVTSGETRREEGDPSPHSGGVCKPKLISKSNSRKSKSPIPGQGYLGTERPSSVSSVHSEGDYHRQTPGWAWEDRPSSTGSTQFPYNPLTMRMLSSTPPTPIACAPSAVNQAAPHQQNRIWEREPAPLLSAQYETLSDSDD
Chain of Histone deacetylase 2 (Q92769 whole entry): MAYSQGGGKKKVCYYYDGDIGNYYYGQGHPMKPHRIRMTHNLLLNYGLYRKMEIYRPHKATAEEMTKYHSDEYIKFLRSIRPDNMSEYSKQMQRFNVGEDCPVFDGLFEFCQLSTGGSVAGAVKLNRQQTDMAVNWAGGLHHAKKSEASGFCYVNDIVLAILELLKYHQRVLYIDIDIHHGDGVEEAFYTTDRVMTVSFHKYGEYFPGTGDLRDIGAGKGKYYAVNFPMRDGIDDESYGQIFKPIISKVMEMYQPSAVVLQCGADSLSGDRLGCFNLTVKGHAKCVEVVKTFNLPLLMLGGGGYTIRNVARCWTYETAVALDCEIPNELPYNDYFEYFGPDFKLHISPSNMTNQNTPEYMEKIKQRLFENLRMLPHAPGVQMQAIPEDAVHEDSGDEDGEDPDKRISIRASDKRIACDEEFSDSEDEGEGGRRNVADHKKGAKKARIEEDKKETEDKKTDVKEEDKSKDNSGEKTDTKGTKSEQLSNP
Chain of Histone deacetylase 1 (Q13547 whole entry): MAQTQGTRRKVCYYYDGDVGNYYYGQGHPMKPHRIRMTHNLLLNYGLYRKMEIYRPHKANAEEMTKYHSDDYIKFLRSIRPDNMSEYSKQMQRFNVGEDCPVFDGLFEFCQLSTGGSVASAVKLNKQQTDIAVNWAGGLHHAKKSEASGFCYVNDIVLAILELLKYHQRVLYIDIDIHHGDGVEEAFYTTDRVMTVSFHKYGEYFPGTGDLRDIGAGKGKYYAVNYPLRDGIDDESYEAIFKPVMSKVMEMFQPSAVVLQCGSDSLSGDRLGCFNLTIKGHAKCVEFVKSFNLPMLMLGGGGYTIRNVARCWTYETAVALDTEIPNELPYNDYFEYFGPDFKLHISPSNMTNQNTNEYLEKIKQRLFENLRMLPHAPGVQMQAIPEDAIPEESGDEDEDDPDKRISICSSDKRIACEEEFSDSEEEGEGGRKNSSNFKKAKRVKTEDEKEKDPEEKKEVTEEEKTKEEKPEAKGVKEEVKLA

SMILES | IC50 [1] | IC50 (Histone deacetylase 2) | IC50 [2] | IC50 [3] | IC50 (Histone deacetylase 1) | IC50 (HL-60) | IC50 (K562) | IC50 (HEL [4]) | Activity (HEL [5]) | Activity (HEL [6]) | IC50 [10] | MIC50 (Candida albicans [11]) | MIC50 (Candida albicans [12]) | MIC50 (Candida albicans [13]) | MIC50 (Candida albicans [14]) | MIC50 (Candida albicans [15]) | MIC50 (Candida albicans [16]) | MIC50 (Candida albicans [17]) | MIC50 (Candida albicans [18]) | MIC50 (Candida albicans [19]) | also measured
CS(=O)(=O)Nc1ccc(-c2ccnc(Nc3ccc(N4CCC(C(=O)NCCCCCCCC(=O)NO)CC4)cc3)n2)cc1 | 0.017 µM | 0.132 µM | 0.074 µM | 0.002 µM | 0.018 µM | > 50 µM | 5.9 µM | 1.8 µM | Dose-dependent effect | 89.2% | 0.076 µM | > 64 mg/L | 0.25 mg/L (≈ 0.401 µM) | 8 mg/L (≈ 12.8 µM) | > 64 mg/L | 0.5 mg/L (≈ 0.802 µM) | 8 mg/L | > 64 mg/L | 0.25 mg/L (≈ 0.401 µM) | 16 mg/L (≈ 25.7 µM) | Activity (HEL [7]): 8.23%; Activity (HEL [8]): 8.12%; Activity (HEL [9]): 34.37%; fractional inhibitory concentration index (FICI) (Candida albicans [20]): 0.13; fractional inhibitory concentration index (FICI) (Candida albicans [21]): 0.13; fractional inhibitory concentration index (FICI) (Candida albicans [22]): 0.26; Activity (Candida albicans [23]): inactive; inhibition (Candida albicans [24]): Dose-dependent effect; inhibition [25]: Dose-dependent effect; inhibition [26]: Dose-dependent effect; inhibition [27]: Dose-dependent effect; Activity (Mus musculus [28]): Non-Toxic; Activity (Mus musculus [29]): Non-Toxic; Activity (Mus musculus [30]): Active; Activity (HEL [31]): Active; Survival (HEL [32]): 27 days; half-life at 1 µM [33]: 15.7 min; CLH [34]: 88.1 µL/min/mg
CS(=O)(=O)Nc1ccc(-c2ccnc(Nc3ccc(N4CCC(C(=O)Nc5ccc(/C=C/C(=O)NO)cc5)CC4)cc3)n2)cc1 | 0.234 µM | 7.47 µM | 0.046 µM | 0.008 µM | 0.25 µM | 1.5 µM | 8.7 µM | 0.34 µM | Dose-dependent effect | 70.62% | 0.359 µM | > 64 mg/L | 0.5 mg/L (≈ 0.797 µM) | 4 mg/L (≈ 6.37 µM) | > 64 mg/L | 0.5 mg/L (≈ 0.797 µM) | 4 mg/L | > 64 mg/L | 1 mg/L (≈ 1.59 µM) | 8 mg/L (≈ 12.7 µM) | Activity (HEL [7]): 11.75%; Activity (HEL [8]): 28.14%; fractional inhibitory concentration index (FICI) (Candida albicans [20]): 0.07; fractional inhibitory concentration index (FICI) (Candida albicans [21]): 0.07; fractional inhibitory concentration index (FICI) (Candida albicans [22]): 0.14; Activity (Candida albicans [23]): inactive; inhibition (Candida albicans [24]): Dose-dependent effect; inhibition (INH) (Candida albicans [35]): 30%; inhibition [25]: Dose-dependent effect; inhibition [26]: Dose-dependent effect; inhibition [27]: Dose-dependent effect; Activity (Mus musculus [28]): Non-Toxic; Activity (Mus musculus [29]): Non-Toxic; Activity (Mus musculus [30]): Active; Activity (HEL [31]): Active; half-life at 1 µM [33]: 19.4 min; CLH [34]: 71.6 µL/min/mg
O=C(NO)c1ccc(-c2ccnc(Nc3ccc(N4CCOCC4)cc3)n2)cc1 | 0.045 µM | 1.7 µM | 0.419 µM | 0.085 µM | 0.16 µM | 6.1 µM | 4 µM | 3.5 µM | Dose-dependent effect | 86.2% | 0.069 µM | > 64 mg/L | 0.5 mg/L (≈ 1.28 µM) | 4 mg/L (≈ 10.2 µM) | > 64 mg/L | 0.5 mg/L (≈ 1.28 µM) | 8 mg/L | > 64 mg/L | 1 mg/L (≈ 2.55 µM) | 16 mg/L (≈ 40.9 µM) | Activity (HEL [9]): 18.9%; fractional inhibitory concentration index (FICI) (Candida albicans [20]): 0.07; fractional inhibitory concentration index (FICI) (Candida albicans [21]): 0.13; fractional inhibitory concentration index (FICI) (Candida albicans [22]): 0.27; Activity (Candida albicans [23]): inactive; inhibition (Candida albicans [24]): Dose-dependent effect; inhibition (INH) (Candida albicans [35]): 30%; inhibition [25]: Dose-dependent effect; inhibition [26]: Dose-dependent effect; inhibition [27]: Dose-dependent effect; inhibition in vivo at 10 mg/kg (HEL [36]): 59.9%; Activity (Mus musculus [28]): Non-Toxic; Activity (Mus musculus [29]): Non-Toxic; Activity (Mus musculus [30]): Active; Activity (HEL [31]): Active; Survival (HEL [32]): 27 days; half-life at 1 µM [33]: 16.5 min; CLH [34]: 83.8 µL/min/mg
